The numbers were not newly measured in patent US9597306B1, “Fumarate compounds, pharmaceutical compositions thereof, and methods of use” (priority 2015, dated 2017), which cites them from elsewhere.

In the case of `COC(=O)/C=C/C(=O)OC` [DMF, dimethylfumarate], the aqueous solubility result is given as “poor”.
